In patent US20100190187A1, “Screening Assays for Antagonists and Analyses of Cardiac Hypertrophy” (The Regents of the University of Michigan Office of …, priority 2006, published 2010):

What was measured:
[1] = test system: HL-1 cells; experiment: Immunofluorescence staining of hypertrophy related proteins in HL-1 cells; format: cell-based, murine; settings: FIG. 12
Text: (§1) Immunofluorescent staining of HL-1 cells can be carried out in a method similar to that previously described (Tevosian et al., 1999), except that 0.5% CHAPS (Fisher) can be used instead of Triton X-100. Briefly, HL-1 cells grown on 2-well slides (Lab-Tek) are initially preserved with Sprayfix cytology fixative. To prepare for staining, the slides are washed in EtOH and water, and then briefly washed with PBS. Cells were fixed with cold acetone, rinsed with PBS, and permeabilized by three ten minute washes with 0.5% CHAPS/PBS. Next, the cells are blocked overnight with 5% milk/10% goat serum/PBS. The permeabilization step is then repeated prior to incubation with the primary antibody in 10% goat serum/0.5% CHAPS/PBS with the antibodies and dilutions listed below. After a one-hour incubation with the primary antibodies, the slides are washed three times in the 10% goat serum/0.5% CHAPS/PBS, then three times in 0.5% CHAPS/PBS. Secondary antibodies, as described below, can be incubated for one-hour with 1% BSA/0.5% CHAPS/PBS. After washing with 0.5% CHAPS/PBS the cells are stained for five minutes with 4,6-diamidine-2-phenylidole-dihydrochloride (DAPI Nucleic Acid Stain; Invitrogen) and cover slips are mounted with Prolong Gold anti-fade reagent (Invitrogen). The following antibody combinations can be used: rabbit anti-mouse VDR (sc-1008; Santa Cruz Biotech; 1:100 dilution), rabbit anti-mouse ANP (AB 5490; Chemicon; 1:50 dilution), and rabbit anti-mouse c-myc (sc-764; Santa Cruz Biotech; 1:100 dilution), all followed by FITC conjugated goat anti-rabbit (AP 307F; Chemicon; 1:400). Mouse monoclonal anti-myotrophin (V 11220, BD Transduction Laboratory; 1:50) followed by FITC conjugated goat anti-mouse (F-0257; Sigma; 1:128), and goat anti-mouse calbindin-9 (sc-18038. Santa Cruz Bio; 1:100) followed by FITC conjugated rabbit anti-goat (AP 106F; Chemicon; 1:100). Slides can be analyzed on an Olympus BX 51 immunofluorescence microscope and photomicrographs can be recorded as digital images.
as §1, with “incubation” for “incubation with the primary antibodies,”, “The following antibody combinations can be used: rabbit anti-mouse VDR (sc-1008; Santa Cruz Biotech; 1:100 dilution), rabbit anti-mouse ANP (AB 5490; Chemicon; 1:50 dilution), and rabbit anti-mouse c-myc (sc-764; Santa Cruz Biotech; 1:100 dilution), all followed by FITC conjugated goat anti-rabbit (AP 307F; Chemicon; 1:400). Mouse monoclonal anti-myotrophin (V 11220, BD Transduction Laboratory; 1:50) followed by FITC conjugated goat anti-mouse (F-0257; Sigma; 1:128), and goat anti-mouse calbindin-9 (sc-18038. Santa Cruz Bio; 1:100) followed by FITC conjugated rabbit anti-goat (AP 106F; Chemicon; 1:100).” left out

[2] = test system: HL-1 cells; experiment: HL-1 cell morphology by light microscopy; format: cell-based, murine; settings: FIG. 11, versus control vehicle
Description: In some embodiments, screening assays can be included to determine whether the test compound can alter the structural morphology of the cardiac myocyte in cell culture. HL-1 cells can be incubated in the presence and absence of a test compound to determine whether structural changes can be observed by light microscopy.
HL-1 cells are obtained from Dr. W. C. Claycomb, Louisiana State University Medical Center, New Orleans, La. HL-1 cells (passages 55-75) are maintained at 37° C. under a 5% C02/air atmosphere in Claycomb medium (JRL Bioscience) supplemented with 10% fetal bovine serum, 0.29 mg/mL L-glutamine, 100 units/mL penicillin, 100 μg/mL streptomycin (all Gibco), and 0.1 mM norepinephrine (Sigma). The medium can be replaced approximately every 24 hours. HL-1 cells were grown in T25 culture flasks which were precoated overnight with 2 μg/cm fibronectin/0.02% gelatin solution. HL-1 cells were maintained until they reached confluence at which time the cells were removed by trypsinization and passed into another T25 culture flask coated with gelatin/fibronectin. Cells can be ultimately passed into T75 flasks to increase the number of cells prior to experimentation. Vitamin D experiments are performed in either T75 flasks, or Lab-Tech 2-well slides (for immunohistochemistry), 24 hours after a 1:2 split of confluent cells. […]

## C=C1CC[C@H](O)C/C1=C/C=C1\CCC[C@]2(C)[C@@H]([C@H](C)CCCC(C)C)CC[C@@H]12 [Vitamin D3]
[1]
  expression of ANP: inhibited or reduced the expression
  expression of VDR: increased the expression
  expression of c-myc: inhibited or reduced the expression
  expression of calbindin 9: inhibited or reduced the expression
  expression of myotrophin: increased the expression
[2]
  structural morphology of HL-1 cells: growth and presence of structural appendages called dendrites
